From US6214881A, “IL-8 receptor antagonists” (SmithKline Beecham Corporation, priority 1999, dated 2001)

System: recombinant human IL-8 type a and b receptors
Experiment: Receptor binding assays ([125I] IL-8 / 125I Gro-a, CHO membranes)
Settings: 125I IL-8 (0.25 nM) or 125I Gro-a; IL-8Ra or IL-8Rb membranes from Chinese hamster ovary cells; receptor subtype not specified for the result
Procedure: The IL-8, and Gro-a chemokine inhibitiory effects of compounds of the present invention were determined by the following in vitro assay:
[^125 I] IL-8 (human recombinant) is obtained from Amersham Corp., Arlington Heights, Ill., with specific activity 2000 Ci/mmol. Gro-a is obtained from NEN-New England Nuclear. All other chemicals are of analytical grade. High levels of recombinant human IL-8 type a and b receptors are individually expressed in Chinese hamster ovary cells as described previously (Holmes, et al., Science, 1991, 253, 1278). The Chinese hamster ovary membranes are homogenized according to a previously described protocol (Haour. et al., J Biol Chem., 249 pp 2195-2205 (1974)). Except that the homogenization buffer is changed to 10 mM Tris-HCL, 1 mM MgSO4, 0.5 mM EDTA (ethylene-diaminetetra-acetic acid), 1 mMPMSF (a-toluenesulphonyl fluoride), 0.5 mg/L Leupeptin, pH 7.5. Membrane protein concentration is determined using Pierce Co. micro-assay kit using bovine serum albumin as a standard. All assays are performed in a 96-well micro plate format. Each reaction mixture contains ^125 I IL-8 (0.25 nM) or ^125 I Gro-a and 0.5 μg/mL of IL-8Ra or 1.0 μg/mL of IL-8Rb membranes in 20 mM Bis-Trispropane and 0.4 mM Tris HCl buffers, pH 8.0, containing 1.2 mM MgSO4, 0.1 mM EDTA, mM NaCl and 0.03% CHAPS. […] The filter is then dried and counted on the Betaplate liquid scintillation counter. […]

Compound: Cc1ccc(S(=O)(=O)NC(=O)c2cccc(NC(=O)Nc3ccccc3Br)c2)cc1 [Example 1, N-[3-(4-methylphenylsulfonyl)carboxamido]-N'-(2-bromophenyl)urea]
- activity in receptor binding assay (inhibition of IL-8 / Gro-a binding): active
